According to ChEMBL document CHEMBL6182900, “Discovery of potent focal adhesion kinase (FAK) inhibitor A8 with enhanced antitumor activity” (Eur J Med Chem, 2025):
One block for each compound: values may come before it.

Experiments:
Focal adhesion kinase 1 = Focal adhesion kinase 1 (Homo sapiens, UniProt Q05397); experiment: Inhibition of FAK (unknown origin) by HTRF assay
Cytochrome P450 2C9 = Cytochrome P450 2C9 (Homo sapiens, UniProt P11712); experiment: Inhibition of CYP2C9 in human liver microsomes in presence of NADPH by LC-MS/MS analysis; type: ADME, Microsome
Cytochrome P450 2C19 = Cytochrome P450 2C19 (Homo sapiens, UniProt P33261); experiment: Inhibition of CYP2C19 in human liver microsomes in presence of NADPH by LC-MS/MS analysis; type: ADME, Microsome
Cytochrome P450 2D6 = Cytochrome P450 2D6 (Homo sapiens, UniProt P10635); experiment: Inhibition of CYP2D6 in human liver microsomes in presence of NADPH by LC-MS/MS analysis; type: ADME, Microsome
Cytochrome P450 3A4 = Cytochrome P450 3A4 (Homo sapiens, UniProt P08684); experiment: Inhibition of CYP3A4 in human liver microsomes in presence of NADPH by LC-MS/MS analysis; type: ADME, Microsome
Cytochrome P450 1A2 = biological target: T1, Cytochrome P450 1A2 (Homo sapiens, UniProt P05177); experiment: Inhibition of CYP1A2 in human liver microsomes in presence of NADPH by LC-MS/MS analysis; type: ADME, Microsome
T1 sequence (P05177 whole entry): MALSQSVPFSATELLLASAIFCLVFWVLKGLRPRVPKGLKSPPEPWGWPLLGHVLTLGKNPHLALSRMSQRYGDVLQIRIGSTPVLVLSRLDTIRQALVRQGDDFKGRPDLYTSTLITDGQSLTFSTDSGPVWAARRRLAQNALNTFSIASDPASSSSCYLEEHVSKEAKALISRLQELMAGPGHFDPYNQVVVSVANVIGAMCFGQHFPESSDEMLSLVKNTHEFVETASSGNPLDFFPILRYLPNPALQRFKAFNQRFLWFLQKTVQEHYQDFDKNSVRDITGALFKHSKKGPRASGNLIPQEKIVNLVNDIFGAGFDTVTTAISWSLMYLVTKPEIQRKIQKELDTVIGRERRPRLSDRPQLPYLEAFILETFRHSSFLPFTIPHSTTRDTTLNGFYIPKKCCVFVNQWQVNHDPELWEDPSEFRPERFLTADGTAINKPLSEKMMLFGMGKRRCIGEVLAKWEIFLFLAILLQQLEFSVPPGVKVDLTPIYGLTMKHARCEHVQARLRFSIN

SK-OV-3 [1] = experiment: Antitumor activity against human SK-OV-3 cells xenografted in mouse model assessed as tumor growth inhibition at 25 mg/kg co-administered with paclitaxel as twice daily dose for 5 days and measured after 2 days break relative to control; conditions: SK-OV-3, 168 h, read-out: TGI
SK-OV-3 [2] = experiment: Antitumor activity against human SK-OV-3 cells xenografted in mouse model assessed as tumor growth inhibition at 25 mg/kg administered twice daily for 5 days and measured after 2 days break relative to control; type: functional; conditions: SK-OV-3, 168 h, time 7 day, read-out: TGI
A549 = experiment: Antitumor activity against human A549 cells xenografted in mouse model assessed as tumor growth inhibition at 50 mg/kg, po administered for 5 days and measured after 2 days relative to control; conditions: 168 h, read-out: TGI
in vitro = conditions: human, liver microsomes
Description: Metabolic stability in human liver microsomes assessed as intrinsic clearance preincubated for 5 mins followed by NADPH addition and measured after 60 mins by LC-MS/MS analysis

SK-OV-3 [3] = experiment: Antitumor activity against human SK-OV-3 cells xenografted in mouse model assessed as tumor growth inhibition at 4 mg/kg, ip administered as weekly dose relative to control; type: functional; conditions: read-out: TGI

Sequence of Focal adhesion kinase 1 (Q05397 whole entry): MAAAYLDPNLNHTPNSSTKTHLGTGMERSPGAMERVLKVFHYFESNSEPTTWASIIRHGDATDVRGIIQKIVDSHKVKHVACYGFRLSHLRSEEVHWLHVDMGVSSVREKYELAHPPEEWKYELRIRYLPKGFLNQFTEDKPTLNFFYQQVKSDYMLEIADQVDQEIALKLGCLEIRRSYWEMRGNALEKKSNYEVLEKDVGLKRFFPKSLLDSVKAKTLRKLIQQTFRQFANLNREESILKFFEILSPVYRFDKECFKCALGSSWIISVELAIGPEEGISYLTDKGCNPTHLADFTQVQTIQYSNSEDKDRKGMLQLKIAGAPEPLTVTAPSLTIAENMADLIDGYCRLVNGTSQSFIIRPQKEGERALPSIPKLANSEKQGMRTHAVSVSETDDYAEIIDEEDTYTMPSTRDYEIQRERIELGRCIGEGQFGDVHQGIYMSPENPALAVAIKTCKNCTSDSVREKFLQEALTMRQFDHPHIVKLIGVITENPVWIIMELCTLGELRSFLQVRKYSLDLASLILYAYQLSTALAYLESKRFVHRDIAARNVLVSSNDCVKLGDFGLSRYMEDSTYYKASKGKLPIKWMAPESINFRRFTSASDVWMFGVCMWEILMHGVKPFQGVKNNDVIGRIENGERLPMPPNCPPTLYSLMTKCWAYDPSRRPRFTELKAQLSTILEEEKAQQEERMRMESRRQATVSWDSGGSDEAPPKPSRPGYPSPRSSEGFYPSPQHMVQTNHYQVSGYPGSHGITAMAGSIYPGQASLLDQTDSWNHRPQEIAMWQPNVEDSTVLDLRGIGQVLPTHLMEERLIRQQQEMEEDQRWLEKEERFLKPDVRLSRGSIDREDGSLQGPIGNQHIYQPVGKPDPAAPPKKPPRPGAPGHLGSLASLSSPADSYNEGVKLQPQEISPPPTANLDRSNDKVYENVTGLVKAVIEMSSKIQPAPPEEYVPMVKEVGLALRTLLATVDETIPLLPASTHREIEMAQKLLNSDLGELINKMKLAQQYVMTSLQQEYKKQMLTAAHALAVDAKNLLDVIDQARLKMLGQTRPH
Sequence of Cytochrome P450 2D6 (P10635 whole entry): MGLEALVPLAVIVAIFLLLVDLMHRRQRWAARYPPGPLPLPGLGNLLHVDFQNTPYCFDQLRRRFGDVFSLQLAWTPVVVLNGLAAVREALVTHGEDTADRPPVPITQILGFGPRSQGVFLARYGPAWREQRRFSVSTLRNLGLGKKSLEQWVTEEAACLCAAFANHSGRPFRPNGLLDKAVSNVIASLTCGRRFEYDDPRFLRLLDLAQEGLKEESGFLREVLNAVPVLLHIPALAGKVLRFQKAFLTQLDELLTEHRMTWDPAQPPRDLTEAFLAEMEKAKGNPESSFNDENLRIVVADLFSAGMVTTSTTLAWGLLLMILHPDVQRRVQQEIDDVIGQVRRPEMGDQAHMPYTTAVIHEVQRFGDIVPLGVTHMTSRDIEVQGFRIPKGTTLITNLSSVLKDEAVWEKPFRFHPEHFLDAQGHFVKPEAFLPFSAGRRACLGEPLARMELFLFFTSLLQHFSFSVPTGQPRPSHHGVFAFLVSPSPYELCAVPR
Sequence of Cytochrome P450 2C9 (P11712 whole entry): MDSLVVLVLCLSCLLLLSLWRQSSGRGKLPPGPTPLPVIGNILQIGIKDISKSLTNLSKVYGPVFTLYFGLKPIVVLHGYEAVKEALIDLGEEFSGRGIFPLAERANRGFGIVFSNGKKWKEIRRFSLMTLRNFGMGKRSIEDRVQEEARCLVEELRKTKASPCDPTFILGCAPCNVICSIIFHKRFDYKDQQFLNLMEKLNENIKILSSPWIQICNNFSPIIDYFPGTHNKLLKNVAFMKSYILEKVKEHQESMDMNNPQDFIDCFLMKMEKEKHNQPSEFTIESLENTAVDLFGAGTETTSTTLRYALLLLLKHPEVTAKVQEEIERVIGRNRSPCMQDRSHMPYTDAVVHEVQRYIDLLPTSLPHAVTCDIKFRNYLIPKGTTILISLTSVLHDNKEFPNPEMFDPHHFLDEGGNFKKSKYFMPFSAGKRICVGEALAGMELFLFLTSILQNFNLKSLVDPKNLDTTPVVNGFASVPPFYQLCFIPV
Sequence of Cytochrome P450 3A4 (P08684 whole entry): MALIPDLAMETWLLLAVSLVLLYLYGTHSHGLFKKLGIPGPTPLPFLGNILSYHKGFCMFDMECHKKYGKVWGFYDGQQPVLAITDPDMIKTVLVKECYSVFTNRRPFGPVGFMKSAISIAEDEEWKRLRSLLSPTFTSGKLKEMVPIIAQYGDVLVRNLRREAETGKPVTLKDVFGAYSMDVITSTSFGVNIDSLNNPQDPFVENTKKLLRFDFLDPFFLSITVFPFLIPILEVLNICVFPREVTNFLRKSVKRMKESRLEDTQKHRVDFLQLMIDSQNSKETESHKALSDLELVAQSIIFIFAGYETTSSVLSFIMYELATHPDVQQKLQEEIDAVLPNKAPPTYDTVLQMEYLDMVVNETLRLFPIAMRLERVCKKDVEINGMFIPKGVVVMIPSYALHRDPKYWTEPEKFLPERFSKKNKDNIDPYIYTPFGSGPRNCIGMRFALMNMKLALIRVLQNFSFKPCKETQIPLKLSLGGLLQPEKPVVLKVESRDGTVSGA
Sequence of Cytochrome P450 2C19 (P33261 whole entry): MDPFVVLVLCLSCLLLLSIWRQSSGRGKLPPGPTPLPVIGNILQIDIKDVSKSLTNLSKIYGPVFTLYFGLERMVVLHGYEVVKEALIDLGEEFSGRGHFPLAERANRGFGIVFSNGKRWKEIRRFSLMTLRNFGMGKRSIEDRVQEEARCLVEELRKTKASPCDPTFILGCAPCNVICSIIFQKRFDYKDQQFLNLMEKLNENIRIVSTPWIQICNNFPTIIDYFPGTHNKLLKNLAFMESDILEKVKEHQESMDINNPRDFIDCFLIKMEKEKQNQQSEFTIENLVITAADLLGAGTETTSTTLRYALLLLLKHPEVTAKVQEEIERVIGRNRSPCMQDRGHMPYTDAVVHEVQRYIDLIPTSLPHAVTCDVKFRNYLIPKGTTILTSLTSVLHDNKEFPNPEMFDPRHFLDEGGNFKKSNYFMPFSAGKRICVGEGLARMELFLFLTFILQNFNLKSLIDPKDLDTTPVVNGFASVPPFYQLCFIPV

Structure (SMILES): CNC(=O)c1ccc(Nc2ncc(C(F)(F)F)c(NCc3nccnc3N(C)S(C)(=O)=O)n2)cc1 [DEFACTINIB]
- inhibition in vivo at 25 mg/kg (SK-OV-3 [1]): 74.7%
- inhibition in vivo at 25 mg/kg (SK-OV-3 [2]): 53.9%
- inhibition in vivo at 50 mg/kg (A549): 40.7%

Structure (SMILES): C#Cc1cccc(Nc2ncnc3cc(OCCOC)c(OCCOC)cc23)c1 [ERLOTINIB]
- inhibition in vivo at 50 mg/kg (A549): 47.4%

Structure (SMILES): CC(=O)O[C@H]1C(=O)[C@@]2(C)[C@H]([C@H](OC(=O)c3ccccc3)[C@]3(O)C[C@H](OC(=O)[C@H](O)[C@@H](NC(=O)c4ccccc4)c4ccccc4)C(C)=C1C3(C)C)[C@]1(OC(C)=O)CO[C@@H]1C[C@@H]2O [PACLITAXEL]
- inhibition in vivo at 4 mg/kg (SK-OV-3 [3]): 55.3%

Now from value to compound:

- IC50 (Focal adhesion kinase 1): 0.0113 µM
Structure (SMILES): CC(=O)Nc1ccc(Nc2nc(Nc3ccc(NC(=O)CCNC(=O)c4ccc(F)nc4)cc3)ncc2Br)c(NC(C)=O)c1

- IC50 (Cytochrome P450 2C9): 22.5 µM
- IC50 (Cytochrome P450 2C19): 36.2 µM
- IC50 (Cytochrome P450 2D6): > 50 µM
- IC50 (Cytochrome P450 3A4): > 50 µM
- IC50 (Cytochrome P450 1A2): 26.6 µM
Structure (SMILES): CNC(=O)c1ccccc1Nc1nc(Nc2ccc(OCCF)cc2)ncc1Br

- microsomal CLint at 1 h (in vitro): 232 µL/min/mg
Structure (SMILES): O=C(O)Cc1ccccc1Nc1c(Cl)cccc1Cl [DICLOFENAC]
